Target: T1, Bile acid receptor (Homo sapiens) (UniProt Q96RI1)
T1 sequence (whole entry): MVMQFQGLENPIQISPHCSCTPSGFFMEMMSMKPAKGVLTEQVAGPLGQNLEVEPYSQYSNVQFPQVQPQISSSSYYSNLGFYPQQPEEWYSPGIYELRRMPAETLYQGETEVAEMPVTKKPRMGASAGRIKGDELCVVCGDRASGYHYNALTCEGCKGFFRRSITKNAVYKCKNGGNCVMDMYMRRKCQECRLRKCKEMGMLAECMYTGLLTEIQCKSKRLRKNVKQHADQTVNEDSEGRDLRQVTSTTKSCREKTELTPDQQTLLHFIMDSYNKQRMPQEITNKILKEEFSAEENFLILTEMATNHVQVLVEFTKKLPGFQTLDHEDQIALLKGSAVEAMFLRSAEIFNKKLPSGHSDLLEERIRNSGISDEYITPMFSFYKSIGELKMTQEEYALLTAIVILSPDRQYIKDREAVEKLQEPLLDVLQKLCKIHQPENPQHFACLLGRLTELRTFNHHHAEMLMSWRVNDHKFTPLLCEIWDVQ

RE: 1.4
Compound: CC(C)c1onc(-c2c(Cl)cccc2Cl)c1COc1ccc(/C=C/c2cccc(C(=O)O)c2)c(Cl)c1

Reference: ChEMBL document CHEMBL1133440, “Identification of a chemical tool for the orphan nuclear receptor FXR” (J Med Chem, 2000)
